According to patent publication US9751840B2, “R-7-(3-aminomethyl-4-methoxyimino-3-methyl-pyrrolidin-1-yl)-1-cyclopropyl-6-fluoro-4-oxo-acid and L-aspartic acid salt, process for the preparation thereof and pharmaceutical composition comprising the same for antimicrobial” (ARIBIO CO. LTD., priority 2009, dated 2017):
≈ marks a conversion by molar mass, not a printed value. Read-outs that look alike come from different tables or passages of the source.

What was measured:
[1] = tested on: polychromatic erythrocyte with one or more nuclei (MNPCE); assay: In vivo genotoxicity, micronucleus test; conditions: male mice, twice intraperitoneal, 30, 15, 7.5 mg/kg
From the text: The following study performed to obtain in vivo genotoxicities, micronucleus test of L-aspartate and hydrochloric acid salt in male mice to the following procedure.

Male ICR mice = assay: Single dose toxicity in mice (LD50); conditions: single intraperitoneal dose, observed 14 days
Description: The following experiment was performed in order to observe the degree of toxicity of the L-aspartate according to the present invention.
Male ICR mice were used as experimental animals. 5 male ICR mice were divided into 6 dose groups, respectively and fasted except for water for 24 hours.

[2] = In vivo tissue distribution test; parameters: species or system ICR mice; conditions: ICR, mouse, spleen, po, 100 mg/kg; read-out: P ratio Spleen
[3] = In vivo pharmacokinetic test; parameters: species or system SD rats; conditions: rats
From the text: The L-aspartate and hydrochloride according to the present invention were orally or intravenously administered to SD rats, respectively and blood samples were collected at a predetermined time to compare in vivo pharmacokinetics.
Then, Cmax: maximum drug concentration, Tmax: maximum drug concentration time, T1/2: drug half-life, AUCO-t: area under the plasma concentration-time curve from time zero to t hours, and AUCO-inf: area under the plasma concentration-time curve from time zero to infinity.

[4] = Stability test in distilled water; format: physicochemical; conditions: 30 mg in 100 ml distilled water
Solubility test = format: physicochemical
[5] = In vivo tissue distribution test; parameters: species or system ICR mice; conditions: mouse, po; for Kp: ICR, 100 mg/kg
Description: An in vivo tissue distribution test was performed in order to confirm the degree of drug distribution of the L-aspartate and hydrochloride according to the present invention in each organ. After 8-week-old ICR mice were purchased and adapted in the laboratory, each salt was orally administered to the mouse at a dose of 100 mg/kg. The mice were bled and sacrificed at a predetermined time and each organ was drawn to measure the concentration in each organ. After the administration of hydrochloride and L-aspartate, each organ concentration over time, the area under the corresponding time-concentration curve, and the ratio of permeation into tissue were shown in Tables 5 and 6.
Then, P ratio is a ratio of permeation into muscle and calculated as intramuscular AUC/intraplasmic AUC.

[6] = SD, rat, plasma, iv, i.v. 10 mg/kg
[7] = SD, rat, plasma, po, p.o. 100 mg/kg
[8] = male, testicle, ICR mice, p.o. 100 mg/kg, read-out: Testicle concentration
[9] = brain, ICR mice, p.o. 100 mg/kg, read-out: Brain concentration
[10] = heart, ICR mice, p.o. 100 mg/kg, read-out: Heart concentration
[11] = kidney, ICR mice, p.o. 100 mg/kg, read-out: Kidney concentration
[12] = liver, ICR mice, p.o. 100 mg/kg, read-out: Liver concentration
[13] = lung, ICR mice, p.o. 100 mg/kg, read-out: Lung concentration
[14] = muscle, ICR mice, p.o. 100 mg/kg, read-out: Muscle concentration
[15] = plasma, ICR mice, p.o. 100 mg/kg, read-out: Plasma concentration
[16] = spleen, ICR mice, p.o. 100 mg/kg, read-out: Spleen concentration
[17] = testicle, ICR mice, p.o. 100 mg/kg, read-out: Testicle concentration
[18] = thymus, ICR mice, p.o. 100 mg/kg, read-out: Thymus concentration

In the case of `CO/N=C1/CN(c2nc3c(cc2F)c(=O)c(C(=O)O)cn3C2CC2)C[C@@]1(C)CN` [L-aspartate (Example 1)], the “MNPCE number vs intact control” value [1] is reported as “not detected significant change”, the “Lethal dose 50” value (Male ICR mice) is reported as 209 mg/kg and the Kp [2] is reported as 8.82. For the same compound, the AUC(0-inf) [3, 6] was 9320 ± 280 ng·h/mL, the AUC(0-t) [3, 6] was 7520 ± 220 ng·h/mL and the Cmax [3, 6] was 4180 ± 290 ng/mL. The Tmax [3, 6] was 0 h, the half-life [3, 6] was 2.05 ± 1.55 h and the AUC(0-t) [3, 7] was 52700 ± 28700 ng·h/mL. For the same compound, the Cmax [3, 7] was 9080 ± 4500 ng/mL, the Tmax [3, 7] was 2.13 ± 0.63 h and the “BA (%)” value ([3]; p.o. 100 mg/kg, calculated by ratio of AUC0-t) was 70.05%. The “Content (%) 60? (after 3 weeks)” value ([4]; 60?, 3 weeks) was 87.4%, the “Content (%) Initial” value ([4]; initial) was 98.1% and the “Content (%) Room temperature (after 3 weeks)” value ([4]; room temperature, 3 weeks) was 98.0%. The “Solubility relative to the hydrochloride” value (Solubility test; distilled water) was “about 2 times”, the solubility (Solubility test; room temperature, water) was 190 mg/mL (≈ 470 mM) and the Kp ([5]; brain, read-out: P ratio Brain) was 0.27. For the same compound, the Kp ([5]; heart, read-out: P ratio Heart) was 4.28, the Kp ([5]; kidney, read-out: P ratio Kidney) was 7.44 and the Kp ([5]; liver, read-out: P ratio Liver) was 11.2. The Kp ([5]; lung, read-out: P ratio Lung) was 6.01, the Kp ([5]; muscle, read-out: P ratio Muscle) was 3.87 and the Kp ([5]; thymus, read-out: P ratio Thymus) was 4.96. For the same compound, the Kp ([5]; male, testicle, read-out: P ratio Testicle) was 1.75, the concentration at 0.5 h [5, 8] was 4940 ng/g and the concentration at 1 h [5, 8] was 8820 ng/g. It also gave a concentration at 8 h [5, 8] of 6970 ng/g, a concentration at 0.5 h [5, 9] of 2280 ng/g and a concentration at 1 h [5, 9] of 2550 ng/g. For the same compound, the concentration at 1.5 h [5, 9] was 2340 ng/g, the concentration at 2 hr [5, 9] was 2570 ng/g and the concentration at 3 h [5, 9] was 2020 ng/g. It also gave a concentration at 5 h [5, 9] of 1520 ng/g, a concentration at 8 h [5, 9] of 330 ng/g and a concentration at 0.5 h [5, 10] of 47200 ng/g. The concentration at 1 h [5, 10] was 58000 ng/g, the concentration at 1.5 hr [5, 10] was 50000 ng/g and the concentration at 2 hr [5, 10] was 36700 ng/g. The concentration at 3 h [5, 10] was 27700 ng/g, the concentration at 5 h [5, 10] was 1330 ng/g and the concentration at 8 h [5, 10] was 8720 ng/g. For the same compound, the concentration at 0.5 h [5, 11] was 79200 ng/g, the concentration at 1 h [5, 11] was 79200 ng/g and the concentration at 1.5 h [5, 11] was 77400 ng/g. The concentration at 2 hr [5, 11] was 62200 ng/g, the concentration at 3 h [5, 11] was 48800 ng/g and the concentration at 5 h [5, 11] was 34000 ng/g. It also gave a concentration at 8 h [5, 11] of 20200 ng/g, a concentration at 0.5 h [5, 12] of 128000 ng/g and a concentration at 1 h [5, 12] of 114000 ng/g. For the same compound, the concentration at 1.5 h [5, 12] was 118000 ng/g, the concentration at 2 hr [5, 12] was 85400 ng/g and the concentration at 3 h [5, 12] was 70800 ng/g. For the same compound, the concentration at 5 h [5, 12] was 57400 ng/g, the concentration at 8 h [5, 12] was 26600 ng/g and the concentration at 0.5 h [5, 13] was 76300 ng/g. For the same compound, the concentration at 1 h [5, 13] was 70100 ng/g, the concentration at 1.5 h [5, 13] was 71500 ng/g and the concentration at 2 hr [5, 13] was 52700 ng/g. For the same compound, the concentration at 3 h [5, 13] was 38700 ng/g, the concentration at 5 h [5, 13] was 24500 ng/g and the concentration at 8 h [5, 13] was 11600 ng/g. For the same compound, the concentration at 0.5 h [5, 14] was 38000 ng/g, the concentration at 1 h [5, 14] was 39600 ng/g and the concentration at 1.5 h [5, 14] was 37400 ng/g. It also gave a concentration at 2 hr [5, 14] of 36700 ng/g, a concentration at 3 h [5, 14] of 28800 ng/g and a concentration at 5 h [5, 14] of 18000 ng/g. It also gave a concentration at 8 h [5, 14] of 6930 ng/g, a concentration at 0.5 h [5, 15] of 11600 ng/mL and a concentration at 1 h [5, 15] of 12200 ng/mL. It also gave a concentration at 1.5 h [5, 15] of 10700 ng/mL, a concentration at 2 hr [5, 15] of 8470 ng/mL and a concentration at 3 h [5, 15] of 6300 ng/mL. For the same compound, the concentration at 5 h [5, 15] was 4620 ng/mL, the concentration at 8 h [5, 15] was 1870 ng/mL and the AUC(0-t) ([5]; plasma, ICR mice, p.o. 100 mg/kg, read-out: AUC0-t Plasma) was 47400 ng·h/mL. The concentration at 0.5 h [5, 16] was 91600 ng/g, the concentration at 1 h [5, 16] was 98100 ng/g and the concentration at 1.5 hr [5, 16] was 84900 ng/g. It also gave a concentration at 2 hr [5, 16] of 67300 ng/g, a concentration at 3 h [5, 16] of 57600 ng/g and a concentration at 5 h [5, 16] of 43700 ng/g. It also gave a concentration at 8 h [5, 16] of 23400 ng/g, a concentration at 1.5 hr [5, 17] of 10200 ng/g and a concentration at 2 hr [5, 17] of 12900 ng/g. It also gave a concentration at 3 h [5, 17] of 14800 ng/g, a concentration at 5 h [5, 17] of 11500 ng/g and a concentration at 0.5 h [5, 18] of 26500 ng/g. The concentration at 1 h [5, 18] was 48100 ng/g, the concentration at 1.5 hr [5, 18] was 48800 ng/g and the concentration at 2 hr [5, 18] was 40100 ng/g. The concentration at 3 h [5, 18] was 39800 ng/g, the concentration at 5 h [5, 18] was 25900 ng/g and the concentration at 8 h [5, 18] was 12800 ng/g.
